Counter-ions that a name gives are not always drawn. Like-named read-outs stand apart in the source and are kept apart here.
Target: T1, 5-HT1A receptor (Rattus norvegicus, UniProt P19327)
T1 construct: synaptosomal membranes isolated from cerebral cortex; from tissue; host or cells: rat cerebral cortex, crude synaptosomal membranes (male Sprague-Dawley rats, Harlan Industries)
T1 sequence (P19327 1-422): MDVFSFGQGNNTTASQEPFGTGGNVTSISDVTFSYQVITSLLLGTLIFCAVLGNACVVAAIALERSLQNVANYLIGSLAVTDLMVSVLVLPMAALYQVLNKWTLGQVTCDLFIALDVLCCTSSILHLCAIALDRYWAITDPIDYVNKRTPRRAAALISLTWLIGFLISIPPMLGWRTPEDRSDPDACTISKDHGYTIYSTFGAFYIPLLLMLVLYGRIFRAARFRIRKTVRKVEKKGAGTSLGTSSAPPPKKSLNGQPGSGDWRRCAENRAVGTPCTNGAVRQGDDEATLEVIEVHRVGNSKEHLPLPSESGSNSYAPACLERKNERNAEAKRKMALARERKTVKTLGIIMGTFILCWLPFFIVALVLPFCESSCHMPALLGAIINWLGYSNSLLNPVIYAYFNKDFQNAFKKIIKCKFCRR
Assay: Inhibition of 3H-8-OH-DPAT binding to rat cerebral cortex synaptosomal membranes (binding at 5HT1a in vitro)
Parameters: species or system rat (male Sprague-Dawley)
Method: This general procedure is set forth in Wong et al., J. Neural Transm. 71:207-218 (1988).
Male Sprague-Dawley rats (110-150 g) from Harlan Industries (Cumberland, Ind.) were fed a Purina Chow ad libitum for at least 3 days before being used in the studies. Rats were killed by decapitation. The brains were rapidly removed, and the cerebral cortices were dissected out at 4° C.
Brain tissues were homogenized in 0.32M sucrose. After centrifugation at 1000×g for 10 min and then at 17000×g for 20 min, a crude synaptosomal fraction was sedimented. The pellet was suspended in 100 vol of 50 mM Tris-HCl, pH 7.4, incubated at 37° C. for 10 min, and centrifuged at 50000×g for 10 min. The process was repeated and the final pellet was suspended in ice-chilled 50 mM Tris-HCl, pH 7.4. By the radioligand binding method, sites specifically labeled by tritiated 8-hydroxy-2-dipropylamino-1,2,3,4-tetrahydronaphthalene (^3 H-8-OH-DPAT) have been identified as 5-HT1A receptors.
Binding of (^3 H-8-OH-DPAT) was performed according to the previously described method [Wong et al., J. Neural Transm. 64:251-269 (1985)]. Briefly, synaptosomal membranes isolated from cerebral cortex were incubated at 37° C. for 10 min. in 2 ml of 50 mM Tris-HCl, pH 7.4; 10 μM pargyline; 0.6 mM ascorbic acid; 0.4 nM ^3 H-8-OH-DPAT; and from 1 to 1000 nM of test compound. Binding was terminated by filtering samples under reduced pressure through glass fiber (GFB) filters. The filters were washed twice with 5 ml of ice cold buffer and placed in scintillation vials with 10 ml of PCS (Amersham/Searle) scintillation fluid. Radioactivity was measured with a liquid scintillation spectrometer. Unlabeled 8-OH-DPAT at 10 μM was also included in separate samples to establish non-specific binding. Specific binding of ^3 H-8-OH-DPAT is defined as the difference of radioactivity bound in the absence and in the presence of 10 μM unlabeled 8-OH-DPAT.

[1] = rat cerebral cortex membranes, 0.4 nM 3H-8-OH-DPAT, 37° C., 10 min, pH 7.4, read-out: IC50, concentration of test compound required to inhibit the binding of 3H-8-OH-DPAT by 50%

Question: With CCCCC(=O)c1cccc2c1CC(N(CCC)CCC)CC2 (stereo not drawn) [Example 1, 2-Di-n-propylamino-8-pentanoyl-1,2,3,4-tetrahydronaphthalene, oxalate salt] as the molecule, how does the IC50 [1] read?
Answer: Its IC50 is 2.2 nM.

Question: How did the IC50 [1] turn out when CCCN(CCC)C1CCc2cccc(C(=O)C(F)(F)F)c2C1 (stereo not drawn) [Example 2, 2-Di-n-propylamino-8-trifluoroacetyl-1,2,3,4-tetrahydronaphthalene, hydrobromide salt] was run?
Answer: The IC50 was 29 nM.

Question: How did the IC50 [1] turn out when CCCN(CCC)C1CCc2cccc(C(=O)CC)c2C1 (stereo not drawn) [Example 3, 2-Di-n-propylamino-8-propionyl-1,2,3,4-tetrahydronaphthalene, oxalate salt] was run?
Answer: The IC50 was 0.8 nM.

Question: Which IC50 [1] does the source give for CCCC(=O)c1cccc2c1CC(N(CCC)CCC)CC2 (stereo not drawn) [Example 4, 2-Di-n-propylamino-8-butanoyl-1,2,3,4-tetrahydronaphthalene,hydrobromide salt] here?
Answer: The IC50 was 3 nM.

Question: CCCN(CCC)C1CCc2cccc(C(=O)C(C)C)c2C1 (stereo not drawn) [Example 5, 2-Di-n-propylamino-8-(α-methylpropionyl)-1,2,3,4-tetrahydronaphthalene, hydrobromide salt] was tested. Which IC50 [1] did it give?
Answer: The IC50 was 0.4 nM.

Question: How did the IC50 [1] turn out when CCCN(CCC)C1CCc2cccc(C(=O)CC(C)C)c2C1 (stereo not drawn) [Example 6, 2-Di-n-propylamino-8-(β-methylbutyryl)-1,2,3,4-tetrahydronaphthalene,hydrobromide salt] was run?
Answer: Its IC50 is 0.4 nM.

Question: Which IC50 does the source give for CCCN(CCC)C1CCc2cccc(C(=O)C(C)(C)C)c2C1 (stereo not drawn) [Example 7, 2-Di-n-propylamino-8-dimethylpropionyl-1,2,3,4-tetrahydronaphthalene, hydrobromide salt] here?
Answer: The IC50 was 9 nM.

Question: CCCN(CCC)C1CCc2cccc(C(=O)C3CCCCC3)c2C1 (stereo not drawn) [Example 8, 2-Di-n-propylamino-8-cyclohexanecarbonyl-1,2,3,4-tetrahydronaphthalene, oxalate salt] was tested. Which IC50 [1] did it give?
Answer: Its IC50 is 0.5 nM.

Question: CCCN(CCC)C1CCc2cccc(C(=O)c3ccccc3)c2C1 (stereo not drawn) [Example 9, 2-Di-n-propylamino-8-benzoyl-1,2,3,4-tetrahydronaphthalene, tosylate salt] was tested. Which IC50 [1] did it give?
Answer: Its IC50 is 3.7 nM.

Question: With CCCN(CCC)C1CCc2cccc(C(=O)c3ccccc3F)c2C1 (stereo not drawn) [Example 11, 2-Di-n-propylamino-8-(o-fluorobenzoyl)-1,2,3,4-tetrahydronaphthalene, p-toluenesulfonic acid salt] as the molecule, how does the IC50 [1] read?
Answer: The IC50 was 0.8 nM.

Question: With CCCN(CCC)C1CCc2cccc(C(=O)COC)c2C1 (stereo not drawn) [Example 12, 2-Di-n-propylamino-8-(methoxyacetyl)-1,2,3,4-tetrahydronaphthalene oxalate] as the molecule, how does the IC50 [1] read?
Answer: The IC50 was 5.8 nM.

Question: CCCN(CCC)C1CCc2cccc(C(C)=O)c2C1 (stereo not drawn) [Example 13, 2-Di-n-propylamino-8-acetyl-1,2,3,4-tetrahydronaphthalene] was tested. Which IC50 [1] did it give?
Answer: Its IC50 is 0.8 nM.
